The record followed here is patent US9879008B2, “2,3,4,6-tetra-substituted benzene-1,5-diamine derivatives, preparation method therefor and medicinal use thereof” (SHANGHAI HAIYAN PHARMACEUTICAL TECHNOLOGY CO., LTD., priority 2014, dated 2018).

The target of one assay is T1, wild-type EGFR kinase (Homo sapiens, UniProt P00533).
T1 construct: purchased Invitrogen PV3872
The assay can be described thus: z-lyte inhibition test against wild-type EGFR kinase.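 Further: reaction volume 10 µL holding 0.8 ng/µL enzyme and 2 µM Tyr04 substrate, with DMSO at 2% once compounds are present.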 The assay is classed as biochemical. To be noted: 10 μM ATP, read-out: EGFR WT (IC50/nM).

Another assay has as its system H1975 cell. The assay can be described thus: MTT cytostatic activity, H1975 cell.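 On all read-outs here: cells in 96-well plates exposed to compound for 72 h, then given MTT for a further 4 h at 37 °C under 5% CO2.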 The class given is cell-based. To be noted: MTT; for IC50: Homo sapiens, NCI-H1975, 72 h, read-out: H1975 cell (IC50/nM); for Selective inhibitory activity against cells [IC50(A431 cell)/IC50(H1975 cell)]: ratio of cell IC50 values.
Another assay concerns A431 cell. The assay can be described thus: MTT cytostatic activity, A431 cell. The assay is classed as cell-based. The settings on record: Homo sapiens, A-431; MTT, 72 h; read-out: A431 cell (IC50/nM).
For another assay, the system named is NIH3T3 cell. The assay can be described thus: MTT cytotoxicity against NIH3T3 cells. To be noted: Mus musculus, NIH3T3; cytotoxicity, MTT, 72 h; read-out: MTT assay against NIH3T3 cell (IC50/nM). The assay is classed as cell-based. (In general: Tetrazolium dyes change colour on reduction, which living cells bring about.)
Another assay concerns A431 cells. Description: ELISA assay for cell activity, EGF-treated A431 cells.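 Further: Serum-starved A431 cells, ELISA on lysates read as OD450 minus OD570, inhibition scaled between EGF-stimulated wells (0%) and unstimulated cell control (100%), DMSO 0.5% final.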 The class given is cell-based. The settings on record: Homo sapiens, A-431, compound 1 h, then EGF 45 min. (In general: ELISA stands for enzyme-linked immunosorbent assay.)
The next assay concerns H1975 cells. Description: ELISA assay for cell activity of EGFR T790M inhibitor, H1975 cells. To be noted: for Selective inhibitory activities against cell [IC50(A431 cell)/IC50(H1975 cell)]: ELISA, ratio of cell IC50 values; for IC50: Homo sapiens, NCI-H1975, 1 h, read-out: H1975 cell (IC50/nM).

Some results are limits rather than exact numbers.

T1 sequence (P00533 25-1210): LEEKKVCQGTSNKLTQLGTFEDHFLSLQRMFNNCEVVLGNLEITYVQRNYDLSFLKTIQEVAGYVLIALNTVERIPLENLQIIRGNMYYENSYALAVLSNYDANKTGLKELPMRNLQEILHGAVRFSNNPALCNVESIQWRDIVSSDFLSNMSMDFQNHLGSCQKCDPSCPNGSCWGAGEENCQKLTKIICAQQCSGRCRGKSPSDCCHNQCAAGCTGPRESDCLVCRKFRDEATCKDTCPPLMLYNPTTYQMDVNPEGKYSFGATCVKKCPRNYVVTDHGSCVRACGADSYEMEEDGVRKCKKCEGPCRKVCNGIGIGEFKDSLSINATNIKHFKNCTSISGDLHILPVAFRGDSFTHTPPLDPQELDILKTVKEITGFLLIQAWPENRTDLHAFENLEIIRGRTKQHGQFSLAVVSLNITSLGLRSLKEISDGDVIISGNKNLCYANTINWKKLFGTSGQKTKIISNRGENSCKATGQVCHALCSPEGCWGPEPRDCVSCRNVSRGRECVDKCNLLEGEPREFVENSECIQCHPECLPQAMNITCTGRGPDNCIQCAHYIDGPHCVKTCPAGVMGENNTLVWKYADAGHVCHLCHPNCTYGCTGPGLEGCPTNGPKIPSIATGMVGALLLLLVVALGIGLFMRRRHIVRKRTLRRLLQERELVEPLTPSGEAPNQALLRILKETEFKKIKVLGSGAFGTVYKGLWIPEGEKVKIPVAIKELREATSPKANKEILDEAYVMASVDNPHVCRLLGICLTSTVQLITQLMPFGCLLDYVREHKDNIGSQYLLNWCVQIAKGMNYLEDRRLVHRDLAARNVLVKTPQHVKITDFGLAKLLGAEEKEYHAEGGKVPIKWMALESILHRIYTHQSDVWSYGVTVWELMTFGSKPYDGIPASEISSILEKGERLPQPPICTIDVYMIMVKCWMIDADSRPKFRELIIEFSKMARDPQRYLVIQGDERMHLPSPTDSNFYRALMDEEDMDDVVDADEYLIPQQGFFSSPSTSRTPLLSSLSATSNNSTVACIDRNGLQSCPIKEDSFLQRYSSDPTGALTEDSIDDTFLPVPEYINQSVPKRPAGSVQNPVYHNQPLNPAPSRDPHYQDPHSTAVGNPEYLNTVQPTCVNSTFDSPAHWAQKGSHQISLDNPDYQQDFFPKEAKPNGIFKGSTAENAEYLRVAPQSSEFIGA

In the case of `C=CC(=O)Nc1cc(Nc2ncc(C(F)(F)F)c(OC3CN(S(C)(=O)=O)C3)n2)c(OC)cc1N1CCC(N(C)C)CC1` [Compound J-31], the IC50 at wild-type EGFR kinase is 27 nM; in the assay with H1975 cell it was 4 nM; in the assay with A431 cell, 1720 nM; in the assay on NIH3T3 cell, > 3000 nM; with A431 cells it was 419 nM; in the assay on H1975 cells, 5 nM. Moreover, the “Selective inhibitory activity against cells [IC50(A431 cell)/IC50(H1975 cell)]” value (from here on “Selective inhibitory activity”) with H1975 cell turned out to be 429. Further, the “Selective inhibitory activities against cell [IC50(A431 cell)/IC50(H1975 cell)]” value (from here on “Selective inhibitory activities”) in the assay on H1975 cells worked out at 84.
As to `C=CC(=O)Nc1cc(Nc2ncc(Cl)c(OC3CCCN(C(C)=O)CC3)n2)c(OC)cc1N1CCC(N(C)C)CC1` (centres unmarked) [Compound J-35], the IC50 on wild-type EGFR kinase was 80 nM; in the assay on H1975 cell, 35 nM; in the assay on A431 cell, 2900 nM; in the assay with NIH3T3 cell, > 10000 nM; in the assay with A431 cells, 2970 nM; in the assay with H1975 cells it was 52 nM. For the same compound, in the assay with H1975 cell, the “Selective inhibitory activity” value is 82.8. The “Selective inhibitory activities” value in the assay with H1975 cells is reported as 57.2.
For the compound `C=CC(=O)Nc1cc(Nc2ncc(Cl)c(OC3CCCN(S(C)(=O)=O)CC3)n2)c(OC)cc1N1CCC(N(C)C)CC1` (centres unmarked) [Compound J-37], the IC50 on wild-type EGFR kinase was 22 nM; in the assay on H1975 cell it was 27 nM; in the assay on A431 cell, 2140 nM; in the assay on NIH3T3 cell, > 10000 nM; in the assay with A431 cells, 919 nM; with H1975 cells, 36 nM. Besides, the “Selective inhibitory activity” value in the assay with H1975 cell was 79.4. Also, the “Selective inhibitory activities” value with H1975 cells is 26.
Consider `C=CC(=O)Nc1cc(Nc2ncc(Cl)c(OC3CCN(C(C)=O)CC3)n2)c(OC)cc1N1CCC(N(C)C)CC1` [Compound J-38], for which the IC50 is 170 nM at wild-type EGFR kinase; 66 nM in the assay with H1975 cell; 4670 nM with A431 cell; > 10000 nM in the assay with NIH3T3 cell; 4490 nM in the assay with A431 cells; 75 nM with H1975 cells. The “Selective inhibitory activity” value in the assay on H1975 cell was 71. Moreover, the “Selective inhibitory activities” value in the assay on H1975 cells was determined as 60.
Take `C=CC(=O)Nc1cc(Nc2ncc(Cl)c(OC3CCN(S(C)(=O)=O)CC3)n2)c(OC)cc1N1CCC(N(C)C)CC1` [Compound J-39]: the IC50 on wild-type EGFR kinase is 39 nM; in the assay on H1975 cell it was 72 nM; with A431 cell, 4300 nM; in the assay with NIH3T3 cell, > 10000 nM; in the assay with A431 cells, 1320 nM; in the assay with H1975 cells, 123 nM. For the same compound, the “Selective inhibitory activity” value with H1975 cell turned out to be 60. In addition, the “Selective inhibitory activities” value in the assay with H1975 cells turned out to be 11.
`C=CC(=O)Nc1cc(Nc2ncc(Cl)c(O[C@@H]3CCCN(S(C)(=O)=O)C3)n2)c(OC)cc1N(C)CCN(C)C` [Compound J-40, (R)—N-(5-(5-chloro-4-(1-(methylsulfonyl)piperidine-3-oxy)pyrimidine-2-amino)-2-((2-(dimethylamino)ethyl)(methyl)amino)-4-methoxyphenyl)acrylamide]: the IC50 at wild-type EGFR kinase was 47 nM; in the assay on H1975 cell, 50 nM; in the assay on A431 cell, 2950 nM; in the assay with NIH3T3 cell, > 10000 nM; in the assay on A431 cells, 670 nM; in the assay on H1975 cells it was 95 nM. The “Selective inhibitory activity” value in the assay on H1975 cell is recorded as 59. Moreover, the “Selective inhibitory activities” value in the assay on H1975 cells was found to be 7.1.
For `C=CC(=O)Nc1cc(Nc2ncc(Cl)c(O[C@@H]3CCN(S(C)(=O)=O)C3)n2)c(OC)cc1N1CCC(N(C)C)CC1` [Compound J-45, (R)—N-(5-(5-chloro-4-(1-(methylsulfonyl)pyrrolidine-3-oxy)pyrimidine-2-amino)-2-(4-(dimethylamino)piperidine-1-yl)-4-methoxyphenyl)acrylamide], the IC50 stood at 41 nM on wild-type EGFR kinase; 19 nM in the assay on H1975 cell; 2740 nM with A431 cell; 8200 nM in the assay with NIH3T3 cell; 784 nM with A431 cells; 18 nM in the assay with H1975 cells. The “Selective inhibitory activity” value in the assay with H1975 cell was found to be 144.1. Further, the “Selective inhibitory activities” value in the assay on H1975 cells was 44.
As for `C=CC(=O)Nc1cc(Nc2ncc(Cl)c(O[C@H]3CCN(S(C)(=O)=O)C3)n2)c(OC)cc1N1CCC(N(C)C)CC1` [Compound J-46], the IC50 is 49 nM at wild-type EGFR kinase; 17 nM in the assay on H1975 cell; 2920 nM in the assay with A431 cell; > 10000 nM in the assay on NIH3T3 cell; 832 nM in the assay with A431 cells; 13 nM with H1975 cells. For the same compound, in the assay on H1975 cell, the “Selective inhibitory activity” value was found to be 171.8. For the same compound, the “Selective inhibitory activities” value in the assay on H1975 cells is 64.
Take `C=CC(=O)Nc1cc(Nc2ncc(Cl)c(O[C@@H]3CCN(C(C)=O)C3)n2)c(OC)cc1N1CCC(N(C)C)CC1` [Compound J-47]: the IC50 is 227 nM at wild-type EGFR kinase; 46 nM in the assay with H1975 cell; 7380 nM with A431 cell; > 10000 nM in the assay with NIH3T3 cell; 2740 nM in the assay on A431 cells; 97 nM in the assay with H1975 cells. In addition, the “Selective inhibitory activity” value in the assay on H1975 cell was 160.5. In the assay with H1975 cells, the “Selective inhibitory activities” value worked out at 28.2.
In the case of `C=CC(=O)Nc1cc(Nc2ncc(Cl)c(O[C@H]3CCN(C(C)=O)C3)n2)c(OC)cc1N1CCC(N(C)C)CC1` [Compound J-48], the IC50 on wild-type EGFR kinase is 610 nM; in the assay on H1975 cell, 56 nM; in the assay with A431 cell, 4620 nM; in the assay on NIH3T3 cell it was > 10000 nM; in the assay with A431 cells, 3790 nM; in the assay on H1975 cells, 102 nM. In the assay on H1975 cell, the “Selective inhibitory activity” value turned out to be 82.4. Also, the “Selective inhibitory activities” value in the assay on H1975 cells was determined as 37.1.
For `C=CC(=O)Nc1cc(Nc2ncc(F)c(SC3CN(S(C)(=O)=O)C3)n2)c(OC)cc1N1CCC(N(C)C)CC1` [Compound J-57], the IC50 at wild-type EGFR kinase was 4 nM; with H1975 cell, 7 nM; in the assay with A431 cell, 534 nM; with NIH3T3 cell, > 10000 nM; in the assay on A431 cells it was 49 nM; in the assay on H1975 cells, 11 nM. For the same compound, the “Selective inhibitory activity” value in the assay with H1975 cell was 76.3. Moreover, the “Selective inhibitory activities” value in the assay on H1975 cells amounted to 4.5.
For the compound `C=CC(=O)Nc1cc(Nc2ncc(F)c(SC3CN(C(C)=O)C3)n2)c(OC)cc1N1CCC(N(C)C)CC1` [Compound J-58], the IC50 on wild-type EGFR kinase was 69 nM; in the assay on H1975 cell, 23 nM; with A431 cell it was 2260 nM; in the assay with NIH3T3 cell it was > 10000 nM; with A431 cells it was 991 nM; in the assay on H1975 cells, 24 nM. For the same compound, the “Selective inhibitory activity” value in the assay with H1975 cell is given as 98.3. In addition, the “Selective inhibitory activities” value with H1975 cells is 41.3.
Consider `C=CC(=O)Nc1cc(Nc2ncc(C(F)(F)F)c(SC3CN(S(C)(=O)=O)C3)n2)c(OC)cc1N1CCC(N(C)C)CC1` [Compound J-59], for which the IC50 on wild-type EGFR kinase was 23 nM; with H1975 cell, < 5 nM; in the assay on A431 cell, 1950 nM; in the assay on NIH3T3 cell it was 9630 nM; in the assay with A431 cells, 757 nM; in the assay with H1975 cells, 6 nM. Also, the “Selective inhibitory activity” value in the assay with H1975 cell is recorded as >390. In addition, the “Selective inhibitory activities” value with H1975 cells was determined as 126.
Regarding `C=CC(=O)Nc1cc(Nc2ncc(Cl)c(NC3CN(S(C)(=O)=O)C3)n2)c(OC)cc1N1CCC(N(C)C)CC1` [Compound J-60, N-(5-(5-chloro-4-(1-(methylsulfonyl)azetidine-3-amino)pyrimidine-2-amino)-2-(4-(dimethylamino)piperidine-1-yl)-4-methoxyphenyl)acrylamide], the IC50 on wild-type EGFR kinase is 6 nM; with H1975 cell, 24 nM; with A431 cell it was 1340 nM; in the assay on NIH3T3 cell, > 10000 nM; with A431 cells, 272 nM; with H1975 cells, 30 nM. The “Selective inhibitory activity” value with H1975 cell is 56. Further, the “Selective inhibitory activities” value in the assay on H1975 cells is 9.1.
Consider `C=CC(=O)Nc1cc(Nc2ncc(Cl)c(OC3CN(S(C)(=O)=O)C3)n2)c(OC)cc1N1CCN(C)CC1` [Compound J-70, N-(5-(5-chloro-4-(1-(methylsulfonyl)azetidine-3-oxy)pyrimidine-2-amino)-4-methoxy-2-(4-methylpiperazine-1-yl)phenyl)acrylamide], for which the IC50 was 14 nM at wild-type EGFR kinase; 6 nM in the assay on H1975 cell; 971 nM in the assay with A431 cell; > 10000 nM with NIH3T3 cell; 460 nM in the assay on A431 cells; 13 nM with H1975 cells. Further, in the assay on H1975 cell, the “Selective inhibitory activity” value is given as 162. The “Selective inhibitory activities” value in the assay with H1975 cells is on record as 35.4.
Take `C=CC(=O)Nc1cc(Nc2ncc(Cl)c(OC3CN(S(C)(=O)=O)C3)n2)c(OC)cc1OCCN(C)C` [Compound J-71]: the IC50 on wild-type EGFR kinase was 23 nM; in the assay with H1975 cell it was 21 nM; with A431 cell, 1800 nM; with NIH3T3 cell, > 10000 nM; in the assay with A431 cells it was 539 nM; in the assay on H1975 cells, 32 nM. Besides, the “Selective inhibitory activity” value in the assay on H1975 cell was 86. Besides, the “Selective inhibitory activities” value in the assay with H1975 cells worked out at 17.
